Reference: the NIST ThermoML archive (doi:10.1016/j.jct.2006.04.007)
“And” between values parts separate entries of the source, which are not always exact repeats. Equal values may be shown once.

Experiment: mn = molality of the nth substance listed, in mol/kg
Settings: 350 kPa, Liquid; for apparent molar heat capacity: Extra sensitive DSC

CC(=O)N[C@@H](C=O)[C@@H](O)[C@H](O)[C@H](O)CO [N-acetyl-D-glucosamine] + O
Settings | apparent molar heat capacity | mass density
278.15 K, m1 = 0.0096 | 385 J/K/mol | –
278.15 K, m1 = 0.01 | – | 1000.31 kg/m3
278.15 K, m1 = 0.02 | – | 1001.78 kg/m3
278.15 K, m1 = 0.0207 | 377 J/K/mol | –
278.15 K, m1 = 0.03 | 365 J/K/mol and 358 J/K/mol | 1002.26 kg/m3 and 1001.98 kg/m3
278.15 K, m1 = 0.07 | 362 J/K/mol | 1005.5 kg/m3
278.15 K, m1 = 0.1502 | 348.5 J/K/mol | 1012.23 kg/m3
278.15 K, m1 = 0.1999 | 368.5 J/K/mol | 1014.67 kg/m3
278.15 K, m1 = 0.3018 | 373.1 J/K/mol | 1021.8 kg/m3
278.15 K, m1 = 0.5001 | 378.3 J/K/mol | 1035.28 kg/m3
278.15 K, m1 = 0.7003 | 380.2 J/K/mol | 1047.7 kg/m3
278.15 K, m1 = 0.958 | 358.2 J/K/mol | 1065.18 kg/m3
283.15 K, m1 = 0.0096 | 416 J/K/mol | –
283.15 K, m1 = 0.01 | – | 1000.13 kg/m3
283.15 K, m1 = 0.02 | – | 1001.42 kg/m3
283.15 K, m1 = 0.0207 | 403 J/K/mol | –
283.15 K, m1 = 0.03 | 385 J/K/mol and 387 J/K/mol | 1001.76 kg/m3 and 1002.02 kg/m3
283.15 K, m1 = 0.07 | 385 J/K/mol | 1005.11 kg/m3
283.15 K, m1 = 0.1502 | 374.5 J/K/mol | 1011.82 kg/m3
283.15 K, m1 = 0.1999 | 392.8 J/K/mol | 1014.24 kg/m3
283.15 K, m1 = 0.3018 | 396.5 J/K/mol | 1021.3 kg/m3
283.15 K, m1 = 0.5001 | 401.6 J/K/mol | 1034.59 kg/m3
283.15 K, m1 = 0.7003 | 403.8 J/K/mol | 1046.91 kg/m3
283.15 K, m1 = 0.958 | 381.8 J/K/mol | 1064.21 kg/m3
288.15 K, m1 = 0.0096 | 435 J/K/mol | –
288.15 K, m1 = 0.01 | – | 999.6 kg/m3
288.15 K, m1 = 0.02 | – | 1000.86 kg/m3
288.15 K, m1 = 0.0207 | 421 J/K/mol | –
288.15 K, m1 = 0.03 | 404 J/K/mol and 401 J/K/mol | 1001.23 kg/m3 and 1001.43 kg/m3
288.15 K, m1 = 0.07 | 405 J/K/mol | 1004.42 kg/m3
288.15 K, m1 = 0.1502 | 394.4 J/K/mol | 1011.1 kg/m3
288.15 K, m1 = 0.1999 | 411.9 J/K/mol | 1013.51 kg/m3
288.15 K, m1 = 0.3018 | 415.2 J/K/mol | 1020.51 kg/m3
288.15 K, m1 = 0.5001 | 420.1 J/K/mol | 1033.66 kg/m3
288.15 K, m1 = 0.7003 | 422 J/K/mol | 1045.87 kg/m3
288.15 K, m1 = 0.958 | 400.5 J/K/mol | 1063.03 kg/m3
293.15 K, m1 = 0.0096 | 450 J/K/mol | –
293.15 K, m1 = 0.0207 | 436 J/K/mol | –
293.15 K, m1 = 0.03 | 420 J/K/mol and 415 J/K/mol | –
293.15 K, m1 = 0.07 | 421 J/K/mol | –
293.15 K, m1 = 0.1502 | 411.4 J/K/mol | –
293.15 K, m1 = 0.1999 | 428.3 J/K/mol | –
293.15 K, m1 = 0.3018 | 431.3 J/K/mol | –
293.15 K, m1 = 0.5001 | 436 J/K/mol | –
293.15 K, m1 = 0.7003 | 437.9 J/K/mol | –
293.15 K, m1 = 0.958 | 416.6 J/K/mol | –
298.15 K, m1 = 0.0096 | 462 J/K/mol | –
298.15 K, m1 = 0.0207 | 449 J/K/mol | –
298.15 K, m1 = 0.03 | 433 J/K/mol and 432 J/K/mol | –
298.15 K, m1 = 0.07 | 437 J/K/mol | –
298.15 K, m1 = 0.1502 | 426.5 J/K/mol | –
298.15 K, m1 = 0.1999 | 442.5 J/K/mol | –
298.15 K, m1 = 0.3018 | 445.2 J/K/mol | –
298.15 K, m1 = 0.5001 | 449.8 J/K/mol | –
298.15 K, m1 = 0.7003 | 451.5 J/K/mol | –
298.15 K, m1 = 0.958 | 430.5 J/K/mol | –
303.15 K, m1 = 0.0096 | 474 J/K/mol | –
303.15 K, m1 = 0.0207 | 461 J/K/mol | –
303.15 K, m1 = 0.03 | 445 J/K/mol and 447 J/K/mol | –
303.15 K, m1 = 0.07 | 451 J/K/mol | –
303.15 K, m1 = 0.1502 | 440 J/K/mol | –
303.15 K, m1 = 0.1999 | 455 J/K/mol | –
303.15 K, m1 = 0.3018 | 457.8 J/K/mol | –
303.15 K, m1 = 0.5001 | 462.3 J/K/mol | –
303.15 K, m1 = 0.7003 | 463.7 J/K/mol | –
303.15 K, m1 = 0.958 | 443.2 J/K/mol | –
308.15 K, m1 = 0.0096 | 486 J/K/mol | –
308.15 K, m1 = 0.01 | – | 994.68 kg/m3
308.15 K, m1 = 0.02 | – | 995.7 kg/m3
308.15 K, m1 = 0.0207 | 472 J/K/mol | –
308.15 K, m1 = 0.03 | 456 J/K/mol and 459 J/K/mol | 996.2 kg/m3 and 996.26 kg/m3
308.15 K, m1 = 0.07 | 462 J/K/mol | 999.2 kg/m3
308.15 K, m1 = 0.1502 | 452.2 J/K/mol | 1005.72 kg/m3
308.15 K, m1 = 0.1999 | 466.4 J/K/mol | 1008.07 kg/m3
308.15 K, m1 = 0.3018 | 469.2 J/K/mol | 1014.85 kg/m3
308.15 K, m1 = 0.5001 | 473.5 J/K/mol | 1027.59 kg/m3
308.15 K, m1 = 0.7003 | 474.7 J/K/mol | 1039.58 kg/m3
308.15 K, m1 = 0.958 | 454.6 J/K/mol | 1056.31 kg/m3
313.15 K, m1 = 0.0096 | 496 J/K/mol | –
313.15 K, m1 = 0.0207 | 482 J/K/mol | –
313.15 K, m1 = 0.03 | 465 J/K/mol and 470 J/K/mol | –
313.15 K, m1 = 0.07 | 473.4 J/K/mol | –
313.15 K, m1 = 0.1502 | 463.3 J/K/mol | –
313.15 K, m1 = 0.1999 | 476.7 J/K/mol | –
313.15 K, m1 = 0.3018 | 479.6 J/K/mol | –
313.15 K, m1 = 0.5001 | 483.8 J/K/mol | –
313.15 K, m1 = 0.7003 | 484.8 J/K/mol | –
313.15 K, m1 = 0.958 | 465.2 J/K/mol | –
318.15 K, m1 = 0.0096 | 506 J/K/mol | –
318.15 K, m1 = 0.01 | – | 990.9 kg/m3
318.15 K, m1 = 0.02 | – | 991.84 kg/m3
318.15 K, m1 = 0.0207 | 491 J/K/mol | –
318.15 K, m1 = 0.03 | 474 J/K/mol and 479 J/K/mol | 992.39 kg/m3 and 992.41 kg/m3
318.15 K, m1 = 0.07 | 483.8 J/K/mol | 995.31 kg/m3
318.15 K, m1 = 0.1502 | 473.6 J/K/mol | 1001.76 kg/m3
318.15 K, m1 = 0.1999 | 486.3 J/K/mol | –
318.15 K, m1 = 0.3018 | 489.2 J/K/mol | –
318.15 K, m1 = 0.5001 | 493.4 J/K/mol | –
318.15 K, m1 = 0.7003 | 494.2 J/K/mol | –
318.15 K, m1 = 0.958 | 475 J/K/mol | –
